# “And” between values parts separate entries of the source, which are not always exact repeats. Equal entries are not always repeated. Results filed as inconclusive are left out.
# System: MX-1 breast xenograft, nude mice, tumor weight T/C
# Test: NCI In Vivo Anticancer Drug Screen. Data for tumor model Human Mammary Carcinoma MX-1 Xenograft (intrarenal inoculation) in NU/NU Swiss (nude) mice
# Conditions: endpoint: mean tumor weight change, higher = larger tumour
# Summary of the method: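 Antitumour effect measured in vivo against vehicle controls, expressed as T/C.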
# [1] = dose: 200.0 mg/kg/injection, schedule: Q04DX003 (sc), vehicle: saline with Tween-80
# [2] = dose: 300.0 mg/kg/injection, schedule: Q04DX003 (sc), vehicle: saline with Tween-80
# [3] = dose: 600.0 mg/kg/injection, schedule: Q04DX003 (sc), vehicle: saline with Tween-80
# [4] = dose: 1200.0 mg/kg/injection, schedule: Q04DX003 (sc), vehicle: saline with Tween-80
# [5] = dose: 2400.0 mg/kg/injection, schedule: Q04DX003 (sc), vehicle: saline with Tween-80
# [6] = dose: 50.0 mg/kg/injection, schedule: Q04DX003 (sc), vehicle: saline with Tween-80
# [7] = dose: 100.0 mg/kg/injection, schedule: Q04DX003 (sc), vehicle: saline with Tween-80
# [8] = dose: 100.0 mg/kg/injection, schedule: Q01DX010 (sc), vehicle: Klucel (hydroxypropylcellulose) (HPC)
smiles,measurement,setting,value
CC(=O)OC1=NC(C)c2c1cc(OC(C)=O)[nH]c2=O (configuration not stated),T/C,"dose: 300.0 mg/kg/injection, schedule: Q04DX003 (sc), vehicle: Klucel (hydroxypropylcellulose) (HPC)",102 % of control
same,T/C,"dose: 600.0 mg/kg/injection, schedule: Q04DX003 (sc), vehicle: Klucel (hydroxypropylcellulose) (HPC)",91 % of control
same,T/C,"dose: 1200.0 mg/kg/injection, schedule: Q04DX003 (sc), vehicle: Klucel (hydroxypropylcellulose) (HPC)",70 % of control
Cc1ccc(N)c(N)c1,T/C,[1],87 % of control
same,T/C,"dose: 800.0 mg/kg/injection, schedule: Q04DX003 (sc), vehicle: saline with Tween-80",112 % of control
CCCCCCCC(=O)OCC(=O)[C@]1(O)Cc2c(O)c3c(c(O)c2[C@@H](OC2CC(N)C(O)C(C)O2)C1)C(=O)c1c(OC)cccc1C3=O (some centres not stated),T/C,"dose: 4.0 mg/kg/injection, schedule: Q01DX010 (sc), vehicle: suspension in saline",17 % of control
same,T/C,"dose: 8.0 mg/kg/injection, schedule: Q01DX010 (sc), vehicle: suspension in saline",2 % of control
C1CN2CCC1CC2,T/C,"dose: 4.69 mg/kg/injection, schedule: Q04DX003 (sc), vehicle: saline with Tween-80",112 % of control
same,T/C,"dose: 9.38 mg/kg/injection, schedule: Q04DX003 (sc), vehicle: saline with Tween-80",93 % of control
O=C1CN(CO)C(=O)N1CO,T/C,"dose: 100.0 mg/kg/injection, schedule: Q04DX003 (ip), vehicle: saline",93 % of control
same,T/C,"dose: 200.0 mg/kg/injection, schedule: Q04DX003 (ip), vehicle: saline",67 % of control
same,T/C,"dose: 400.0 mg/kg/injection, schedule: Q04DX003 (ip), vehicle: saline",28 % of control
c1cc(OCC2CO2)ccc1OCC1CO1 (configuration not stated),T/C,[2],110 % of control
same,T/C,[3],103 % of control
same,T/C,[4],92 % of control
same,T/C,[5],106 % of control
C[C@@]12C(=O)OC(=O)[C@]1(C)[C@H]1CC[C@@H]2O1,T/C,"dose: 1.25 mg/kg/injection, schedule: Q04DX003 (sc), vehicle: Klucel (hydroxypropylcellulose) (HPC)",29 % of control
same,T/C,"dose: 2.5 mg/kg/injection, schedule: Q04DX003 (sc), vehicle: Klucel (hydroxypropylcellulose) (HPC)",74 % of control
COc1cc(OC)c(NC(=O)ON2C(=O)c3ccccc3C2=O)cc1Cl,T/C,[6],95 % of control
same,T/C,[7],103 % of control
same,T/C,[1],85 % of control
same,T/C,"dose: 400.0 mg/kg/injection, schedule: Q04DX003 (sc), vehicle: saline with Tween-80",114 % of control
CN(Cc1cnc2nc(N)nc(N)c2n1)c1ccc(C(=O)N[C@@H](CCC(=O)O)C(=O)O)cc1,T/C,"dose: 0.5 mg/kg/injection, schedule: Q01DX010 (sc), vehicle: sodium bicarbonate",86 % of control
same,T/C,"dose: 1.0 mg/kg/injection, schedule: Q01DX010 (sc), vehicle: sodium bicarbonate",175 % of control
O=c1[nH]c(=O)c2nc(-c3cccnc3)cnc2[nH]1,T/C,"dose: 200.0 mg/kg/injection, schedule: Q04DX003 (sc), vehicle: Klucel (hydroxypropylcellulose) (HPC)",36 % of control
O=C(NC1CCCCC1)OCc1c(COC(=O)NC2CCCCC2)c(-c2ccc(Cl)c(Cl)c2)n2c1CCC2,T/C,[2],114 % of control
same,T/C,[3],114 % of control
same,T/C,[4],107 % of control
same,T/C,[5],109 % of control
CCCCCC1c2cc(O)ccc2OC1N1CCOCC1 (configuration not stated),T/C,[2],72 % of control
same,T/C,[3],71 % of control
same,T/C,[4],90 % of control
same,T/C,[5],67 % of control
C[n+]1cccc(NC(=O)c2ccc(NC(=O)C34CCC(C(=O)Nc5ccc(C(=O)Nc6ccc[n+](C)c6)cc5)(CC3)CC4)cc2)c1,T/C,"dose: 12.5 mg/kg/injection, schedule: Q04DX003 (sc), vehicle: saline with Tween-80",118 % of control
same,T/C,"dose: 25.0 mg/kg/injection, schedule: Q04DX003 (sc), vehicle: saline with Tween-80",64 % of control
same,T/C,[6],35 % of control
same,T/C,[7],27 % of control
CNC(=O)c1cccc2c(Nc3ccc(NS(C)(=O)=O)cc3OC)c3cccc(C)c3nc12,T/C,"dose: 50.0 mg/kg/injection, schedule: Q04DX003 (sc), vehicle: water",111 % of control
same,T/C,"dose: 100.0 mg/kg/injection, schedule: Q04DX003 (sc), vehicle: water",73 % of control
same,T/C,"dose: 200.0 mg/kg/injection, schedule: Q04DX003 (sc), vehicle: water",31 % of control
CN(C)/N=N/c1nc[nH]c1C(N)=O,T/C,[8],93 % of control
same,T/C,"dose: 200.0 mg/kg/injection, schedule: Q01DX010 (sc), vehicle: Klucel (hydroxypropylcellulose) (HPC)",48 % of control
same,T/C,"dose: 400.0 mg/kg/injection, schedule: Q01DX010 (sc), vehicle: Klucel (hydroxypropylcellulose) (HPC)",14 % of control
CC[C@]1(O)C[C@H]2CN(CCc3c([nH]c4ccccc34)[C@@](C(=O)OC)(c3cc4c(cc3OC)N(C=O)[C@H]3[C@@](O)(C(=O)OC)[C@H](OC(C)=O)[C@]5(CC)C=CCN6CC[C@]43[C@@H]65)C2)C1,T/C,"dose: 0.5 mg/kg/injection, schedule: Q01DX010 (sc), vehicle: saline",-100 % of control and -81 % of control
same,T/C,"dose: 1.0 mg/kg/injection, schedule: Q01DX010 (sc), vehicle: saline",-99 % of control
CN1CCN(Cc2nc3cccc4c3c([n+]2[O-])-c2ccccc2-4)CC1,T/C,"dose: 12.5 mg/kg/injection, schedule: Q01DX010 (sc), vehicle: saline with Tween-80",72 % of control
same,T/C,"dose: 25.0 mg/kg/injection, schedule: Q01DX010 (sc), vehicle: saline with Tween-80",96 % of control
same,T/C,"dose: 400.0 mg/kg/injection, schedule: Q01DX010 (sc), vehicle: saline with Tween-80",35 % of control
C[n+]1c(-c2cccc(OCCOCCOc3cccc(-c4c5cc(N)ccc5c5ccc(N)cc5[n+]4C)c3)c2)c2cc(N)ccc2c2ccc(N)cc21,T/C,"dose: 4.0 mg/kg/injection, schedule: Q04DX003 (sc), vehicle: water",92 % of control
same,T/C,"dose: 64.0 mg/kg/injection, schedule: Q04DX003 (sc), vehicle: water",73 % of control
C=C1C(C)C2C(Cc3ccccc3)NC(=O)C23C(OC(C)=O)C=CC(C)(O)C(=O)C(C)C/C=C/C3C1O (configuration not stated),T/C,"dose: 3.75 mg/kg/injection, schedule: Q04DX003 (sc), vehicle: Klucel (hydroxypropylcellulose) (HPC)",344 % of control
same,T/C,"dose: 7.5 mg/kg/injection, schedule: Q04DX003 (sc), vehicle: Klucel (hydroxypropylcellulose) (HPC)",528 % of control
same,T/C,"dose: 15.0 mg/kg/injection, schedule: Q04DX003 (sc), vehicle: Klucel (hydroxypropylcellulose) (HPC)",497 % of control
CN(C)c1nc(N(C)C)nc(N(C)C)n1,T/C,"dose: 25.0 mg/kg/injection, schedule: Q01DX010 (sc), vehicle: Klucel (hydroxypropylcellulose) (HPC)",5 % of control
same,T/C,"dose: 50.0 mg/kg/injection, schedule: Q01DX010 (sc), vehicle: Klucel (hydroxypropylcellulose) (HPC)",21 % of control
same,T/C,[8],-82 % of control
same,T/C,[3],-87 % of control and -100 % of control
COc1cccc2c1C(=O)c1c(O)c3c(c(O)c1C2=O)C[C@@](O)(/C(C)=N/NC(=O)c1cccc([N+](=O)[O-])c1)C[C@@H]3OC1CC(N)C(O)C(C)O1 (some centres not stated),T/C,"dose: 4.0 mg/kg/injection, schedule: Q01DX010 (sc), vehicle: water",89 % of control
same,T/C,"dose: 8.0 mg/kg/injection, schedule: Q01DX010 (sc), vehicle: water",43 % of control
same,T/C,"dose: 16.0 mg/kg/injection, schedule: Q01DX010 (sc), vehicle: water",104 % of control
Cc1ccc2c(c1)C(=O)N(CC[P+](c1ccccc1)(c1ccccc1)c1ccccc1)C2=O,T/C,"dose: 25.0 mg/kg/injection, schedule: Q04DX003 (sc), vehicle: Klucel (hydroxypropylcellulose) (HPC)",110 % of control
CO[C@@]12[C@H](COC(N)=O)C3=C(C(=O)C(C)=C(N)C3=O)N1C[C@@H]1N[C@@H]12,T/C,"dose: 3.0 mg/kg/injection, schedule: Q04DX003 (sc), vehicle: saline",-100 % of control
same,T/C,"dose: 6.0 mg/kg/injection, schedule: Q04DX003 (sc), vehicle: saline",-88 % of control and -100 % of control (2×)
C=C(C)C(=NC(C)(C)C)Nc1ccccc1,T/C,[7],101 % of control
C=C1c2cccc(O)c2C(O)=C2C(=O)[C@]3(O)C(O)=C(C(N)=O)C(=O)[C@@H](N(C)C)[C@@H]3[C@@H](O)[C@H]12,T/C,"dose: 75.0 mg/kg/injection, schedule: Q04DX003 (ip), vehicle: Klucel (hydroxypropylcellulose) (HPC)",89 % of control
same,T/C,"dose: 150.0 mg/kg/injection, schedule: Q04DX003 (ip), vehicle: Klucel (hydroxypropylcellulose) (HPC)",74 % of control
same,T/C,"dose: 300.0 mg/kg/injection, schedule: Q04DX003 (ip), vehicle: Klucel (hydroxypropylcellulose) (HPC)",58 % of control

# From PubChem BioAssay AID296 (DTP/NCI, 2004)
